The nature of this data set: recombinant barcode read abundance after kanamycin selection (control-corrected) (log10(CPM+1)); higher = more efficient recombination; sequences stand for … in AGTGCAGAGAAAATCGGCCAGTTTTCTCTGCCTGCAGTCCGCATGCCGT…ATTTATGCAGCGGACTGCCTTTCTCCCAAAGTGATAAACCGGACAGTATCATGGACCGGTTTTCCCGGTAATCCGTATTTGCAAGGTTGGTTTCACT; site = the 11-nt target. The method, boiled down:
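Values are log10(CPM+1) from a pooled E. coli screen of targets paired with IS621 bridge RNA target-binding loops. Recombination efficiency here means counts per million of recombinant-junction barcodes, averaged and control-corrected. Plates were chloramphenicol/ampicillin LB agar for the control and chloramphenicol/ampicillin/kanamycin with 0.1 mM IPTG, two replicates each.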
For the sequence “TAAGAATGTTGGGTTCTAACCTGTTGCCTAC [TAAGAATCTAG_LTGcore_GT_RTGcore_GT] (site TAAGAATCTAG) (LTG core: GT, RTG core: GT)”, the “recombinant barcode read abundance (log10)” value was 0.128.
The same measure for “TAAGAATGTTGGGTTCTAACCTGTTGCCTAG [TAAGAATCTAG_LTGcore_GT_RTGcore_CT] (site TAAGAATCTAG) (LTG core: GT, RTG core: CT)”: 0.127; for “TAAGAATTATGGGTTCTAACCTGTTGCCTTA [TAAGAATCTAG_LTGcore_TA_RTGcore_TA] (site TAAGAATCTAG) (LTG core: TA, RTG core: TA)”: 0.111; for “TAGAGGGAGTGGGTTCTAACCTGTTGCGGAG [TAGAGGGCTCC_LTGcore_AG_RTGcore_CT] (site TAGAGGGCTCC) (LTG core: AG, RTG core: CT)”: 0.0663.
Take “TAGAGGGAGTGGGTTCTAACCTGTTGCGGCT [TAGAGGGCTCC_LTGcore_AG_RTGcore_AG] (site TAGAGGGCTCC) (LTG core: AG, RTG core: AG)”: the “recombinant barcode read abundance (log10)” value was 0.0923.
The same measure for “TAGAGGGCATGGGTTCTAACCTGTTGCGGAG [TAGAGGGCTCC_LTGcore_CA_RTGcore_CT] (site TAGAGGGCTCC) (LTG core: CA, RTG core: CT)”: 2.42; for “TAGAGGGCCTGGGTTCTAACCTGTTGCGGGG [TAGAGGGCTCC_LTGcore_CC_RTGcore_CC] (site TAGAGGGCTCC) (LTG core: CC, RTG core: CC)”: 0.132.
“TAGAGGGCGTGGGTTCTAACCTGTTGCGGCG [TAGAGGGCTCC_LTGcore_CG_RTGcore_CG] (site TAGAGGGCTCC) (LTG core: CG, RTG core: CG)”: the “recombinant barcode read abundance (log10)” value was 0.0165.
For the sequence “TAGAGGGCTTGGGTTCTAACCTGTTGCGGAA [TAGAGGGCTCC_LTGcore_CT_RTGcore_TT] (site TAGAGGGCTCC) (LTG core: CT, RTG core: TT)”, the “recombinant barcode read abundance (log10)” value amounted to 0.746.
For “TAGAGGGCTTGGGTTCTAACCTGTTGCGGAC [TAGAGGGCTCC_LTGcore_CT_RTGcore_GT] (site TAGAGGGCTCC) (LTG core: CT, RTG core: GT)” the value was 1.38.
The same measure for “TAGAGGGCTTGGGTTCTAACCTGTTGCGGCT [TAGAGGGCTCC_LTGcore_CT_RTGcore_AG] (site TAGAGGGCTCC) (LTG core: CT, RTG core: AG)”: 0.623; for “TAGAGGGCTTGGGTTCTAACCTGTTGCGGTG [TAGAGGGCTCC_LTGcore_CT_RTGcore_CA] (site TAGAGGGCTCC) (LTG core: CT, RTG core: CA)”: 0.438; for “TAGAGGGGGTGGGTTCTAACCTGTTGCGGAG [TAGAGGGCTCC_LTGcore_GG_RTGcore_CT] (site TAGAGGGCTCC) (LTG core: GG, RTG core: CT)”: 0.0671.
With “TAGAGGGGGTGGGTTCTAACCTGTTGCGGCC [TAGAGGGCTCC_LTGcore_GG_RTGcore_GG] (site TAGAGGGCTCC) (LTG core: GG, RTG core: GG)”, the “recombinant barcode read abundance (log10)” value was 0.114.
Regarding “TAGAGGGTCTGGGTTCTAACCTGTTGCGGGA [TAGAGGGCTCC_LTGcore_TC_RTGcore_TC] (site TAGAGGGCTCC) (LTG core: TC, RTG core: TC)”, the “recombinant barcode read abundance (log10)” value was determined as 0.0922.
Take “TAGAGGGTGTGGGTTCTAACCTGTTGCGGAG [TAGAGGGCTCC_LTGcore_TG_RTGcore_CT] (site TAGAGGGCTCC) (LTG core: TG, RTG core: CT)”: the “recombinant barcode read abundance (log10)” value turned out to be 0.173.
For “TAGAGGGTTTGGGTTCTAACCTGTTGCGGAA [TAGAGGGCTCC_LTGcore_TT_RTGcore_TT] (site TAGAGGGCTCC) (LTG core: TT, RTG core: TT)” the value was 0.0961; for “TAGAGGGTTTGGGTTCTAACCTGTTGCGGAG [TAGAGGGCTCC_LTGcore_TT_RTGcore_CT] (site TAGAGGGCTCC) (LTG core: TT, RTG core: CT)”, 0.949; for “TCGCGACAATGGGTTCTAACCTGTTGCCGAG [TCGCGACCTCG_LTGcore_AA_RTGcore_CT] (site TCGCGACCTCG) (LTG core: AA, RTG core: CT)”, 0.0505.
Take “TCGCGACAATGGGTTCTAACCTGTTGCCGTT [TCGCGACCTCG_LTGcore_AA_RTGcore_AA] (site TCGCGACCTCG) (LTG core: AA, RTG core: AA)”: the “recombinant barcode read abundance (log10)” value was 0.176.
The same measure for “TCGCGACACTGGGTTCTAACCTGTTGCCGAG [TCGCGACCTCG_LTGcore_AC_RTGcore_CT] (site TCGCGACCTCG) (LTG core: AC, RTG core: CT)”: 0.0715.
For “TCGCGACCGTGGGTTCTAACCTGTTGCCGAG [TCGCGACCTCG_LTGcore_CG_RTGcore_CT] (site TCGCGACCTCG) (LTG core: CG, RTG core: CT)”, the “recombinant barcode read abundance (log10)” value came out at 0.392.
For “TCGCGACCTTGGGTTCTAACCTGTTGCCGAT [TCGCGACCTCG_LTGcore_CT_RTGcore_AT] (site TCGCGACCTCG) (LTG core: CT, RTG core: AT)”, the “recombinant barcode read abundance (log10)” value is 0.514.
As to “TCGCGACCTTGGGTTCTAACCTGTTGCCGCA [TCGCGACCTCG_LTGcore_CT_RTGcore_TG] (site TCGCGACCTCG) (LTG core: CT, RTG core: TG)”, the “recombinant barcode read abundance (log10)” value was 0.072.
The same measure for “TCGCGACCTTGGGTTCTAACCTGTTGCCGCT [TCGCGACCTCG_LTGcore_CT_RTGcore_AG] (site TCGCGACCTCG) (LTG core: CT, RTG core: AG)”: 0.0581; for “TCGCGACCTTGGGTTCTAACCTGTTGCCGGG [TCGCGACCTCG_LTGcore_CT_RTGcore_CC] (site TCGCGACCTCG) (LTG core: CT, RTG core: CC)”: 0.283; for “TCGCGACCTTGGGTTCTAACCTGTTGCCGGT [TCGCGACCTCG_LTGcore_CT_RTGcore_AC] (site TCGCGACCTCG) (LTG core: CT, RTG core: AC)”: 0.129.
The same measure for “TCGCGACCTTGGGTTCTAACCTGTTGCCGTC [TCGCGACCTCG_LTGcore_CT_RTGcore_GA] (site TCGCGACCTCG) (LTG core: CT, RTG core: GA)”: 0.204.
For “TCGCGACGATGGGTTCTAACCTGTTGCCGAG [TCGCGACCTCG_LTGcore_GA_RTGcore_CT] (site TCGCGACCTCG) (LTG core: GA, RTG core: CT)” the value was 0.241.
As for “TCGCGACGATGGGTTCTAACCTGTTGCCGTC [TCGCGACCTCG_LTGcore_GA_RTGcore_GA] (site TCGCGACCTCG) (LTG core: GA, RTG core: GA)”, the “recombinant barcode read abundance (log10)” value was 0.123.
For “TCGCGACGCTGGGTTCTAACCTGTTGCCGAG [TCGCGACCTCG_LTGcore_GC_RTGcore_CT] (site TCGCGACCTCG) (LTG core: GC, RTG core: CT)”, the “recombinant barcode read abundance (log10)” value came out at 0.235.
The same measure for “TCGCGACGTTGGGTTCTAACCTGTTGCCGAC [TCGCGACCTCG_LTGcore_GT_RTGcore_GT] (site TCGCGACCTCG) (LTG core: GT, RTG core: GT)”: 0.0448; for “TCGCGACTATGGGTTCTAACCTGTTGCCGAG [TCGCGACCTCG_LTGcore_TA_RTGcore_CT] (site TCGCGACCTCG) (LTG core: TA, RTG core: CT)”: 0.0865.
“TCGCGACTGTGGGTTCTAACCTGTTGCCGCA [TCGCGACCTCG_LTGcore_TG_RTGcore_TG] (site TCGCGACCTCG) (LTG core: TG, RTG core: TG)”: the “recombinant barcode read abundance (log10)” value is 0.419.
The same measure for “TCTACCCAATGGGTTCTAACCTGTTGCTGTT [TCTACCCCTCA_LTGcore_AA_RTGcore_AA] (site TCTACCCCTCA) (LTG core: AA, RTG core: AA)”: 0.186; for “TCTACCCATTGGGTTCTAACCTGTTGCTGAG [TCTACCCCTCA_LTGcore_AT_RTGcore_CT] (site TCTACCCCTCA) (LTG core: AT, RTG core: CT)”: 0.331; for “TCTACCCCATGGGTTCTAACCTGTTGCTGTG [TCTACCCCTCA_LTGcore_CA_RTGcore_CA] (site TCTACCCCTCA) (LTG core: CA, RTG core: CA)”: 0.0357.
Consider “TCTACCCCGTGGGTTCTAACCTGTTGCTGAG [TCTACCCCTCA_LTGcore_CG_RTGcore_CT] (site TCTACCCCTCA) (LTG core: CG, RTG core: CT)”, for which the “recombinant barcode read abundance (log10)” value is 0.0746.
With “TCTACCCCGTGGGTTCTAACCTGTTGCTGCG [TCTACCCCTCA_LTGcore_CG_RTGcore_CG] (site TCTACCCCTCA) (LTG core: CG, RTG core: CG)”, the “recombinant barcode read abundance (log10)” value amounted to 0.0225.
For “TCTACCCCTTGGGTTCTAACCTGTTGCTGAC [TCTACCCCTCA_LTGcore_CT_RTGcore_GT] (site TCTACCCCTCA) (LTG core: CT, RTG core: GT)” the value was 0.169.
For “TCTACCCCTTGGGTTCTAACCTGTTGCTGCG [TCTACCCCTCA_LTGcore_CT_RTGcore_CG] (site TCTACCCCTCA) (LTG core: CT, RTG core: CG)” the value was 0.0367; for “TCTACCCCTTGGGTTCTAACCTGTTGCTGCT [TCTACCCCTCA_LTGcore_CT_RTGcore_AG] (site TCTACCCCTCA) (LTG core: CT, RTG core: AG)”, 0.0324; for “TCTACCCCTTGGGTTCTAACCTGTTGCTGGT [TCTACCCCTCA_LTGcore_CT_RTGcore_AC] (site TCTACCCCTCA) (LTG core: CT, RTG core: AC)”, 0.0498.

The values above are taken from the supplement of paper PMC11208160.
